Measurements as given in patent US11779565B2, “Small organic molecules for use in the treatment of neuroinflammatory disorders” (THE MEDICAL RESEARCH, INFRASTRUCTURE AND HEALTH SERVICES …, priority 2017, dated 2023).
pIC50: −log10 of the molar value.

Key:
BMP-2 = target: T1, BMP-2 (Homo sapiens, UniProt P12643); test: ATDC5 cell based HTS bioassay: ALP production stimulated by BMP-2 and heparin; design: species or system mouse; details: for pIC50: inhibition of BMP-2-stimulated ALP in ATDC5 cells, 48 hours, tested at 0.62-10 μM; for inhibition at 2.5 µM: ATDC5 cells, read-out: inhibition of BMP-2 (ALP induction)
T1 construct: purchased R&D Systems
T1 sequence (P12643 283-396): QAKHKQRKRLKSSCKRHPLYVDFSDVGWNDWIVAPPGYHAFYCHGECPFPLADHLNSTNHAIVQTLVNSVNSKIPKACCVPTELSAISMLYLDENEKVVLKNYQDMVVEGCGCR
Description: (§1) Poly-L-lysine (Sigma-Aldrich) was added to 384-well plates and was removed after 30 min of incubation at RT. An assay medium containing DMEM/F12, 2% FBS, 100 units/ml penicillin, […] streptomycin (Biological industries) was added to each well. […] ATDC5 cells (Sigma-Aldrich) were harvested, re-suspended in assay medium and added to a final concentration of 2000 cells/well. Finally, heparin (Sigma-Aldrich) was added to a final concentration of 2 μg/ml. The cells were incubated for 48 hours at 37° C. with 5% CO2 in a humidified chamber in the presence or absence of potential small molecule inhibitors of BPM-2. After incubation, ALP levels and cell viability were determined using a completely automated protocol. Cells were washed with PBS, lysed using a lysis buffer containing 0.2% Triton X-100 in PBS supplemented with a protease inhibitor cocktail (Sigma-Aldrich) and incubated for 25 min at RT. ALP level was then determined by addition of CDP-Star® chemiluminescent substrate (Sigma-Aldrich) and measurement of luminescence after incubation for 25 min at RT in the dark. Cell viability was finally determined by addition of CellTiter-Glo® reagent (Biological Industries) and luminescence measurement after 10 min of incubation.
An ATDC5 cell based assay for assessing structure-function relationship of BMP-2 and BMP receptor IA was originally described in Keller et al (Nature Structural & Molecular Biology 2004 11, 481-488). In order to screen a large volume of potential therapeutic agents the ATDC5 cell based bioassay for detecting BMP inhibition was adapted for use in high throughput screening. The bioassay is based on the stimulation of alkaline phosphatase (ALP) production in mouse ATDC5 cells by administration of BMP-2 and heparin, and measurement of ALP levels in the presence of the potential inhibitors. […] This was achieved by using CellTiter-Glo® Luminescent Cell Viability Assay for assessing the cells' viability after the luminescent signal by CDP-Star® has faded. The simultaneous assessment of both ALP production and cells' viability was necessary since potentially toxic tested small molecules may lead to reduced ALP levels by cellular cytotoxicity rather than by interference with BMP-2 signaling. […] Particulars of the bioassay are detailed in the Experimental procedures section above.
A library of small molecules (SM) was screened using the High Throughput Screening bioassay described above. About 7600 SMs were screened, from the Maybridge library, which consists of organic “drug-like” compounds, using the pre-plated HitFinder™ Collection. […] The SM were tested at various concentrations, i.e. at 0.62 μM, 1.25 μM, 2.5 μM, 5 μM and 10 μM.

BMP-4 = target: T2, BMP-4 (Homo sapiens, UniProt P12644); test: ATDC5 bioassay with rhBMP-4 stimulation instead of rhBMP-2 (ALP); format: cell-based, mouse; details: ATDC5 cells; for effect on ALP production induced by BMP-4 compared with BMP-2: 2.5 μM and 5 μM; for inhibition at 2.5 µM: read-out: inhibition of BMP-4 (ALP induction)
T2 sequence (P12644 293-408): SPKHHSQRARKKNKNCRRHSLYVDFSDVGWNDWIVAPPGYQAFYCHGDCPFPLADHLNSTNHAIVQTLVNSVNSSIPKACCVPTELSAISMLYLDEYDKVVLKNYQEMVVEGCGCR
Description: as §1
Due to the high homology between BMP-2 and BMP-4, the ability of the SMs to inhibit BMP-2 and BMP-4 signaling (similar to the effect of the anti-BMP-2/4 mAb) was also examined.

RR-EAE mice = test: De novo expression of NeuN (BrdU+NeuN+ cells) in SGZ of RR-EAE mice; format: in vivo
Description: FIGS. 12A-12B—The effect of SM1, SM7, SM9 and SM6 on de novo expression of mature neurons marker NeuN in the SGZ. FIG. 12A: immunohistochemical images showing the labeling of BrdU^+NeuN^+ cells in the SGZ. Images were obtained using Olympus 8.1 microscope (magnification×10). FIG. 12B: Quantification of BrdU^+NeuN^+ in the SGZ. Analysis was performed using image J software on 3 sections from each mouse (3 mice from each group, total n=9). Values are given as mean±SEM and the results of Student's t-test are represented as *p<0.05.
RR-EAE induced mice were intraperitoneally injected with 250 μg/mouse (Low-L) or 500 μg/mouse (High-H) of the small molecules SM1, SM7, SM9, SM6, or the corresponding vehicle. The SMs were injected each day starting on day 9 post immunization for 30 days. For immunohistochemical analysis, 3 mice of each group were intraperitoneally injected daily with bromo-2′-deoxyuridine (BrdU) starting from day 9 post immunization for 8 following days.
In this experiment, the amount of BrdU^+NeuN^+ cells in the SGZ of mice was evaluated. FIGS. 12A-12B show immunohistochemical labeling of BrdU^+NeuN^+ cells in mice with EAE that were treated with SMs or vehicle, using Olympus 8.1 microscope (magnification×10).

[1] = high dose (H) 500 μg/mouse i.p. daily

| SMILES | pIC50 (BMP-2) | effect on ALP production induced by BMP-4 compared with BMP-2 (BMP-4) | BrdU+NeuN+ cells in the SGZ vs. vehicle (RR-EAE mice; [1]) | inhibition at 2.5 µM (BMP-2) [%] | inhibition at 2.5 µM (BMP-4) [%] | BrdU+NeuN+ cells in the SGZ vs. vehicle (RR-EAE mice; low dose (L) 250 μg/mouse i.p. daily) |
| --- | --- | --- | --- | --- | --- | --- |
| COC(=O)c1sccc1N/N=C(\C#N)S(=O)(=O)c1cccs1 [SM1, Methyl 3-[(2E)-2-[cyano(thiophen-2-ylsulfonyl)methylidene]hydrazinyl]thiophene-2-carboxylate] | 5.59 | same effect | significant increased induction | – | – | – |
| O=C(Nc1cccc(C(F)(F)F)c1)c1ccc([N+](=O)[O-])o1 [SM6, N2-[3-(trifluoromethyl)phenyl)-5-nitro-2-furamide] | 5.01 | same effect | – | – | – | – |
| N#Cc1c(O)nsc1Nc1ccccc1C(F)(F)F [SM7, 3-hydroxy-5-[2-(trifluoromethyl)aniline]isothiazole-4-carbonitrile] | 5.66 | inhibit BMP-2 slightly more than BMP-4 | – | 47.3 | 29.8 | – |
| CS(=O)(=O)c1noc(-c2ccc(Cl)cc2)c1C#N [SM9, 5-(4-chlorophenyl)-3-methylsulfonyl-1,2-oxazole-4-carbonitrile] | 5.36 | inhibit BMP-2 slightly more than BMP-4 | trend for increased | 29.1 | 18.9 | significant increased induction |
